In brackets after ≈: the same amount, converted by molar mass. Activity calls are given as the source filed them. The rule behind the calls is not given here.
How the values were obtained:
Format in all cases: functional
KB = assay: Cytotoxicity against human KB cells; settings: for EC50: read-out: ED50 (the source's name)
P388 [1] = assay: In vivo antitumor activity against mouse P388 cells at 25 mg/kg after 3 days
P388 [2] = assay: In vivo antitumor activity against mouse P388 cells at 200 mg/kg after 1 day

SMILES: O=c1ccc2nccc3c4c(O)cccc4n1c23
- EC50 (KB): ≤ 4 µg/mL

SMILES: COc1cccc2c1c1c(OC)cnc3ccc(=O)n2c31
- EC50 (KB): 1 µg/mL (≈ 3.57 µM)
- T/C (P388 [1]): 122%

SMILES: O=c1[nH]cc(F)c(=O)[nH]1 [FLUOROURACIL]
- T/C (P388 [2]): 135%

SMILES: O=c1ccc2nccc3c4ccccc4n1c23
- Activity (KB): inactive

Source: ChEMBL document CHEMBL1149009, “Antitumor agents, 79. Cytotoxic antileukemic alkaloids from Brucea antidysenterica” (1986)
